ChEMBL document CHEMBL5046291, “Evodiamine-Inspired Topoisomerase-Histone Deacetylase Dual Inhibitors: Novel Orally Active Antitumor Agents for Leukemia Therapy” (J Med Chem, 2022)

Legend:
[1] = test system: HEL; assay: Induction of apoptosis in HEL cells assessed as apoptotic cells at 0.1 uM incubated for 48 hrs by annexin V-FITC/PI staining based flow cytometry (reference value: 3.95%); assay type: functional, Homo sapiens
[2] = test system: HEL; assay: Induction of apoptosis in HEL cells assessed as apoptotic cells at 0.5 uM incubated for 48 hrs by annexin V-FITC/PI staining based flow cytometry (reference value: 4.23%); assay type: functional, Homo sapiens
[3] = test system: HEL; assay: Antitumor activity against HEL cells xenografted in BALB/C mouse assessed as T/C value at 10 mg/kg, po qd for 14 days consecutively by caliper method relative to control; assay type: functional, Homo sapiens; conditions: time 14 day
[4] = test system: MCF7; assay: Antiproliferative activity against human MCF7 cells assessed as cell growth inhibition incubated for 8 hrs by CCK8 assay; assay type: functional, cell-based; conditions: MCF7, 8 h
[5] = test system: A549; assay: Antiproliferative activity against human A549 cells assessed as cell growth inhibition incubated for 8 hrs by CCK8 assay; assay type: functional, cell-based; conditions: A549, 8 h
[6] = test system: HCT-116; assay: Antiproliferative activity against human HCT-116 cells assessed as cell growth inhibition incubated for 8 hrs by CCK8 assay; assay type: functional, cell-based; conditions: HCT-116, 8 h
[7] = test system: HepG2; assay: Antiproliferative activity against human HepG2 cells assessed as cell growth inhibition incubated for 8 hrs by CCK8 assay; assay type: functional, cell-based; conditions: HepG2, 8 h
[8] = test system: K562; assay: Antiproliferative activity against human K562 cells assessed as cell growth inhibition incubated for 8 hrs by CCK8 assay; assay type: functional, cell-based; conditions: K562, 8 h
[9] = test system: HEL; assay: Antiproliferative activity against HEL cells assessed as cell growth inhibition incubated for 8 hrs by CCK8 assay; assay type: functional, cell-based; conditions: Homo sapiens
[10] = test system: HEL; assay: Synergistic antiproliferative effect on HEL cells assessed as fractional inhibitory concentration index at 10 uM in presence of vorinostat; assay type: functional, Homo sapiens
[11] = test system: HEL; assay: Synergistic antiproliferative effect on HEL cells assessed as fractional inhibitory concentration index at 3.33 uM in presence of vorinostat; assay type: functional, Homo sapiens
[12] = test system: HEL; assay: Synergistic antiproliferative effect on HEL cells assessed as fractional inhibitory concentration index at 1.11 uM in presence of vorinostat; assay type: functional, Homo sapiens
[13] = test system: HEL; assay: Synergistic antiproliferative effect on HEL cells assessed as fractional inhibitory concentration index at 0.37 uM in presence of vorinostat; assay type: functional, Homo sapiens
[14] = test system: HEL; assay: Synergistic antiproliferative effect on HEL cells assessed as fractional inhibitory concentration index at 0.12 uM in presence of vorinostat; assay type: functional, Homo sapiens
[15] = test system: HEL; assay: Synergistic antiproliferative effect on HEL cells assessed as fractional inhibitory concentration index at 0.04 uM in presence of vorinostat; assay type: functional, Homo sapiens
[16] = test system: HEL; assay: Synergistic antiproliferative effect on HEL cells assessed as fractional inhibitory concentration index at 0.014 uM in presence of vorinostat; assay type: functional, Homo sapiens
[17] = test system: HEL; assay: Synergistic antiproliferative effect on HEL cells assessed as fractional inhibitory concentration index at 0.0046 uM in presence of vorinostat; assay type: functional, Homo sapiens
[18] = test system: HEL; assay: Synergistic antiproliferative effect on HEL cells assessed as combination index at 10 uM in presence of vorinostat; assay type: functional, Homo sapiens
[19] = test system: HEL; assay: Synergistic antiproliferative effect on HEL cells assessed as combination index at 3.33 uM in presence of vorinostat; assay type: functional, Homo sapiens
[20] = test system: HEL; assay: Synergistic antiproliferative effect on HEL cells assessed as combination index at 1.11 uM in presence of vorinostat; assay type: functional, Homo sapiens
[21] = test system: HEL; assay: Synergistic antiproliferative effect on HEL cells assessed as combination index at 0.37 uM in presence of vorinostat; assay type: functional, Homo sapiens
[22] = test system: HEL; assay: Synergistic antiproliferative effect on HEL cells assessed as combination index at 0.12 uM in presence of vorinostat; assay type: functional, Homo sapiens
[23] = test system: HEL; assay: Synergistic antiproliferative effect on HEL cells assessed as combination index at 0.04 uM in presence of vorinostat; assay type: functional, Homo sapiens
[24] = test system: HEL; assay: Synergistic antiproliferative effect on HEL cells assessed as combination index at 0.014 uM in presence of vorinostat; assay type: functional, Homo sapiens
[25] = test system: HEL; assay: Synergistic antiproliferative effect on HEL cells assessed as combination index at 0.046 uM in presence of vorinostat; assay type: functional, Homo sapiens
[26] = test system: HEL; assay: Antitumor activity against HEL cells xenografted in BALB/C mouse assessed as tumor growth inhibition at 10 mg/kg, po qd for 14 days consecutively by caliper method relative to control; assay type: functional, Homo sapiens; conditions: 336 h, time 14 day, read-out: TGI

**Q.** What does the source list for `O=C(CCCCCCC(=O)Nc1ccccc1)NO` [VORINOSTAT]?
**A.** Activity [1]: 15.83%; Activity [2]: 46.97%; T/C [3]: 88.3%

**Q.** What does the source list for `CN1c2ccc(F)cc2C(=O)N2CCc3c([nH]c4ccc(O)cc34)C21` (configuration not stated)?
**A.** IC50 [4]: 760 nM; IC50 [5]: 530 nM; IC50 [6]: 190 nM; IC50 [7]: 430 nM; IC50 [8]: 230 nM; IC50 [9]: 130 nM; fractional inhibitory concentration index (FICI) [10]: 0.86; fractional inhibitory concentration index (FICI) [11]: 0.862; fractional inhibitory concentration index (FICI) [12]: 0.852; fractional inhibitory concentration index (FICI) [13]: 0.868; fractional inhibitory concentration index (FICI) [14]: 0.853; fractional inhibitory concentration index (FICI) [15]: 0.836; fractional inhibitory concentration index (FICI) [16]: 0.802; fractional inhibitory concentration index (FICI) [17]: 0.727; CI [18]: 1.03; CI [19]: 0.954; CI [20]: 0.954; CI [21]: 0.956; CI [22]: 0.798; CI [23]: 0.784; CI [24]: 0.561; CI [25]: 0.453; inhibition in vivo at 10 mg/kg [26]: 7.4%; T/C [3]: 94.9%
